Laboratory results as given in patent publication US12304932B2, “PACAP stabilized peptide” (SENJU PHARMACEUTICAL CO., LTD., priority 2017, dated 2025).
Square brackets hold non-standard residues; d marks the D form. Peptide text beside a SMILES is read from it. * marks the point of attachment. Ala(1H-tetrazol-5-yl) = N[C@@H](Cc1nnn[nH]1)C(=O)O; Nle = CCCC[C@H](N)C(=O)O; Ms = CS(=O)(=O)*

Legend:
Type in all cases: physicochemical
[1] = Peptide stability tests 2 and 3: Tris buffer pH 7.0, stored at 60° C., HPLC conditions 2; details: 100 μM peptide, Tris buffer pH 7.0, 60° C.
How it was run: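 Peptides at 100 μM in Tris buffer pH 7.0, held 1 or 2 weeks at 60° C. An unstored sample served as standard. Water-corrected survival rate by HPLC on C18 at 40° C., 0.1% formic acid water/acetonitrile gradient, 220 nm detection.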

[2] = Peptide stability test 1: aqueous solution, phosphate buffer pH 7.0, stored at 40° C., HPLC conditions 1; details: phosphate buffer pH 7.0, 40° C.; for survival rate after correction for water, 40° C., 1-month storage / survival rate after correction for water, 40° C., 2-month storage: 100 μM peptide; for survival rate after correction for water, 40° C., 2-month storage: 2 months
Protocol: Peptides 1 and 3 to 5 synthesized in Example 2 were weighed and dissolved in phosphate buffer (pH 7.0) to prepare 1.0 mM peptide solutions. The 1.0 mM peptide solutions were then diluted with phosphate buffer to 100 μM. After filtering with. Chromatdisk (product of Merck Millipore, Millex-GV, 0.22 μm), each filtrate was dispensed into an LC vial (Waters Deactivated Qsert Vial). The prepared peptide solutions were incubated for one month or 2 months in a 40° C. thermostatic bath to obtain stored samples. A simultaneously prepared sample among the peptide solutions that was not stored was used as a standard sample (initial sample). The standard sample and the stored samples were stored at −30° C. until sample analysis.
Using the total weight of the aqueous peptide solution and storage vessel as the specimen weight, measurements were recorded as the specimen weights before storage and the specimen weights after storage under different storage conditions. The empty weight of the storage vessel was also measured, and the moisture permeability was determined by the following formula.
After stirring the standard sample and the stored samples on a vortex mixer, each peptide solution was transferred to an HPLC vial (Deactivated Qsert vial by Waters Co.). Reverse-phase HPLC (HPLC system: Prominence by Shimadzu Corp.) was conducted under the conditions shown in Table 3 below for analysis of the_peptide solutions, and chromatograms were obtained.
Column: XSelect CSH C18 by Waters Co., 5 μm, 4.6×250 mm
Guard column: XSelect CSH C18 by Waters. Co., 5 μm, 4.6×20 mm Guard Cartridge
Detection wavelength: 220 nm
Mobile phase A: 0.1% formic acid in water
Mobile phase B: 0.1% formic acid in acetonitrile
Measuring time: 30 minutes
Measuring sample injection rate: 50 μL
Column temperature: 40° C.
Mobile phase delivery: The mixing ratio of mobile phase A and mobile phase B was varied as shown in Table 3 for linear concentration gradient control.
The peak area value for the peptide in the chromatogram was calculated, and the survival rate (survival rate before correction for water) was calculated using formula (2). The survival rate after correction for water was also calculated from the survival rate before correction for water using formula (3), taking into account the moisture permeability of the container.

[3] = Peptide stability test 4: phosphate buffer pH 7.0, stored at 40° C.; details: phosphate buffer pH 7.0, 40° C.; for survival rate after correction for water, 40° C., 1-month storage / survival rate after correction for water, 40° C., 2-month storage: 100 μM peptide; for survival rate after correction for water, 40° C., 2-month storage: 2 months
Protocol: Peptides 10 and 11 synthesized in Example 2 were weighed and dissolved in phosphate buffer (pH 7.0) to prepare 1.0 mM peptide solutions. The solutions were filtered with a Chromatdisk (product of Merck Millipore, Millex-GV, 0.22 Each filtrate was diluted to 100 μM with phosphate buffer (pH 7.0) and dispensed into a tube (Protein LoBind Tube by Eppendorf Co.). The prepared peptides were incubated for one month or 2 months in a 40° C. thermostatic bath to obtain stored samples. A simultaneously prepared sample among the peptide solutions that was not stored was used as a standard sample (initial sample). The standard sample and the stored samples were stored at −30° C. until sample analysis.
The survival rate after correction for water for each peptide among the stored samples was measured in the same manner as Example 4, and the results are shown in Table 8.

Compound	survival rate after correction for water, 60° C., 1-week storage ([1]; 1 week) [%]	survival rate after correction for water, 60° C., 2-week storage ([1]; 2 weeks) [%]	survival rate after correction for water, 40° C., 1-month storage [2] [%]	survival rate after correction for water, 40° C., 2-month storage [2] [%]	stability in aqueous solution, in words [2]	survival rate after correction for water, 40° C., 1-month storage [3] [%]	survival rate after correction for water, 40° C., 2-month storage [3] [%]	stability in aqueous solution, in words [3]
CC[C@H](C)[C@H](NC(=O)CNC(=O)[C@H](CC(=O)O)NC(=O)[C@H](CO)NC(=O)[C@@H](N)Cc1c[nH]cn1)C(=O)N[C@@H](Cc1ccccc1)C(=O)N[C@H](C(=O)N[C@@H](CC(=O)O)C(=O)N[C@@H](CO)C(=O)N[C@@H](Cc1ccc(O)cc1)C(=O)N[C@@H](CO)C(=O)N[C@@H](CCCNC(=N)N)C(=O)N[C@@H](Cc1ccc(O)cc1)C(=O)N[C@@H](CCCNC(=N)N)C(=O)N[C@@H](CCCCN)C(=O)N[C@@H](CCC(N)=O)C(=O)N[C@@H](CCSC)C(=O)N[C@@H](C)C(=O)N[C@H](C(=O)N[C@@H](CCCCN)C(=O)N[C@@H](CCCCN)C(=O)N[C@@H](Cc1ccc(O)cc1)C(=O)N[C@@H](CC(C)C)C(=O)N[C@@H](C)C(=O)N[C@@H](C)C(=O)N[C@H](C(=O)N[C@@H](CC(C)C)C(N)=O)C(C)C)C(C)C)[C@@H](C)O [Peptide 1, reference compound]	26.6	15.8	37.4	21.3	–	–	–	–
CC[C@H](C)[C@H](NC(=O)CNC(=O)[C@H](Cc1nnn[nH]1)NC(=O)[C@H](CO)NC(=O)[C@@H](N)Cc1c[nH]cn1)C(=O)N[C@@H](Cc1ccccc1)C(=O)N[C@H](C(=O)N[C@@H](CC(=O)O)C(=O)N[C@@H](CO)C(=O)N[C@@H](Cc1ccc(O)cc1)C(=O)N[C@@H](CO)C(=O)N[C@@H](CCCNC(=N)N)C(=O)N[C@@H](Cc1ccc(O)cc1)C(=O)N[C@@H](CCCNC(=N)N)C(=O)N[C@@H](CCCCN)C(=O)N[C@@H](CCC(N)=O)C(=O)N[C@@H](CCSC)C(=O)N[C@@H](C)C(=O)N[C@H](C(=O)N[C@@H](CCCCN)C(=O)N[C@@H](CCCCN)C(=O)N[C@@H](Cc1ccc(O)cc1)C(=O)N[C@@H](CC(C)C)C(=O)N[C@@H](C)C(=O)N[C@@H](C)C(=O)N[C@H](C(=O)N[C@@H](CC(C)C)C(N)=O)C(C)C)C(C)C)[C@@H](C)O [Peptide 3]	–	–	76.5	60.7	higher stability than peptide 1	–	–	–
CC[C@H](C)[C@H](NC(=O)CNC(=O)[C@H](CC(=O)O)NC(=O)[C@H](CO)NC(=O)[C@@H](N)Cc1c[nH]cn1)C(=O)N[C@@H](Cc1ccccc1)C(=O)N[C@H](C(=O)N[C@@H](Cc1nnn[nH]1)C(=O)N[C@@H](CO)C(=O)N[C@@H](Cc1ccc(O)cc1)C(=O)N[C@@H](CO)C(=O)N[C@@H](CCCNC(=N)N)C(=O)N[C@@H](Cc1ccc(O)cc1)C(=O)N[C@@H](CCCNC(=N)N)C(=O)N[C@@H](CCCCN)C(=O)N[C@@H](CCC(N)=O)C(=O)N[C@@H](CCSC)C(=O)N[C@@H](C)C(=O)N[C@H](C(=O)N[C@@H](CCCCN)C(=O)N[C@@H](CCCCN)C(=O)N[C@@H](Cc1ccc(O)cc1)C(=O)N[C@@H](CC(C)C)C(=O)N[C@@H](C)C(=O)N[C@@H](C)C(=O)N[C@H](C(=O)N[C@@H](CC(C)C)C(N)=O)C(C)C)C(C)C)[C@@H](C)O [Peptide 4] (H-HSDGIFT[Ala(1H-tetrazol-5-yl)]SYSRYRKQMAVKKYLAAVL-NH2)	–	–	42.8	28.2	increased stability compared to peptide 1	–	–	–
CC[C@H](C)[C@H](NC(=O)CNC(=O)[C@H](Cc1nnn[nH]1)NC(=O)[C@H](CO)NC(=O)[C@@H](N)Cc1c[nH]cn1)C(=O)N[C@@H](Cc1ccccc1)C(=O)N[C@H](C(=O)N[C@@H](Cc1nnn[nH]1)C(=O)N[C@@H](CO)C(=O)N[C@@H](Cc1ccc(O)cc1)C(=O)N[C@@H](CO)C(=O)N[C@@H](CCCNC(=N)N)C(=O)N[C@@H](Cc1ccc(O)cc1)C(=O)N[C@@H](CCCNC(=N)N)C(=O)N[C@@H](CCCCN)C(=O)N[C@@H](CCC(N)=O)C(=O)N[C@@H](CCSC)C(=O)N[C@@H](C)C(=O)N[C@H](C(=O)N[C@@H](CCCCN)C(=O)N[C@@H](CCCCN)C(=O)N[C@@H](Cc1ccc(O)cc1)C(=O)N[C@@H](CC(C)C)C(=O)N[C@@H](C)C(=O)N[C@@H](C)C(=O)N[C@H](C(=O)N[C@@H](CC(C)C)C(N)=O)C(C)C)C(C)C)[C@@H](C)O [Peptide 5] (H-HS[Ala(1H-tetrazol-5-yl)]GIFT[Ala(1H-tetrazol-5-yl)]SYSRYRKQMAVKKYLAAVL-NH2)	–	–	94.7	85.6	further increased stability over peptide 3 and peptide 4	–	–	–
CC[C@H](C)[C@H](NC(=O)CNC(=O)[C@H](Cc1nnn[nH]1)NC(=O)[C@H](CO)NC(=O)[C@H](Cc1c[nH]cn1)NC(C)=O)C(=O)N[C@@H](Cc1ccccc1)C(=O)N[C@H](C(=O)N[C@@H](Cc1nnn[nH]1)C(=O)N[C@@H](CO)C(=O)N[C@@H](Cc1ccc(O)cc1)C(=O)N[C@@H](CO)C(=O)N[C@@H](CCCNC(=N)N)C(=O)N[C@@H](Cc1ccc(O)cc1)C(=O)N[C@@H](CCCNC(=N)N)C(=O)N[C@@H](CCCCN)C(=O)N[C@@H](CCC(N)=O)C(=O)N[C@@H](CCSC)C(=O)N[C@@H](C)C(=O)N[C@H](C(=O)N[C@@H](CCCCN)C(=O)N[C@@H](CCCCN)C(=O)N[C@@H](Cc1ccc(O)cc1)C(=O)N[C@@H](CC(C)C)C(=O)N[C@@H](C)C(=O)N[C@@H](C)C(=O)N[C@H](C(=O)N[C@@H](CC(C)C)C(N)=O)C(C)C)C(C)C)[C@@H](C)O [Peptide 10] (Ac-HS[Ala(1H-tetrazol-5-yl)]GIFT[Ala(1H-tetrazol-5-yl)]SYSRYRKQMAVKKYLAAVL-NH2)	–	–	–	–	–	94.0	87.8	stabilized to the same degree
CCCC[C@H](NC(=O)[C@H](CCC(N)=O)NC(=O)[C@H](CCCCN)NC(=O)[C@H](CCCNC(=N)N)NC(=O)[C@H](Cc1ccc(O)cc1)NC(=O)[C@H](CCCNC(=N)N)NC(=O)[C@H](CO)NC(=O)[C@H](Cc1ccc(O)cc1)NC(=O)[C@H](CO)NC(=O)[C@H](Cc1nnn[nH]1)NC(=O)[C@@H](NC(=O)[C@H](Cc1ccccc1)NC(=O)[C@@H](NC(=O)CNC(=O)[C@H](Cc1nnn[nH]1)NC(=O)[C@H](CO)NC(=O)[C@H](Cc1c[nH]cn1)NS(C)(=O)=O)[C@@H](C)CC)[C@@H](C)O)C(=O)N[C@@H](C)C(=O)N[C@H](C(=O)N[C@@H](CCCCN)C(=O)N[C@@H](CCCCN)C(=O)N[C@@H](Cc1ccc(O)cc1)C(=O)N[C@@H](CC(C)C)C(=O)N[C@@H](C)C(=O)N[C@@H](C)C(=O)N[C@H](C(=O)N[C@@H](CC(C)C)C(N)=O)C(C)C)C(C)C [Peptide 11] (Ms-HS[Ala(1H-tetrazol-5-yl)]GIFT[Ala(1H-tetrazol-5-yl)]SYSRYRKQ[Nle]AVKKYLAAVL-NH2)	–	–	–	–	–	94.2	88.8	stabilized to the same degree
